From patent US8927717B1, “Thiochromeno[2,3-c]quinolin-12-one derivatives, preparation method and application thereof” (National Defense Medical Center, priority 2014, dated 2015)

Key:
HL-60(TB) = type: cell-based; settings: HL-60(TB); 10^−5 molar
HOP-62 = type: cell-based; settings: HOP-62; 10^−5 molar
HOP-92 = type: cell-based; settings: HOP-92; 10^−5 molar
NCI-H460 = type: cell-based; settings: NCI-H460; 10^−5 molar
COLO 205 = type: cell-based; settings: COLO 205; 10^−5 molar
HT29 = type: cell-based; settings: HT29; 10^−5 molar
SW-620 = type: cell-based; settings: SW-620; 10^−5 molar
SF-539 = type: cell-based; settings: SF-539; 10^−5 molar
SNB-19 = type: cell-based; settings: SNB-19; 10^−5 molar
SNB-75 = type: cell-based; settings: SNB-75; 10^−5 molar
M14 = type: cell-based; settings: M14; 10^−5 molar
SK-MEL-2 = type: cell-based; settings: SK-Mel-2; 10^−5 molar
IGROV1 = type: cell-based; settings: IGROV1; 10^−5 molar
OVCAR-4 = type: cell-based; settings: OVCAR-4; 10^−5 molar
ACHN = type: cell-based; settings: ACHN; 10^−5 molar
CAKI-1 = type: cell-based; settings: CAKI-1; 10^−5 molar
HS 578T = type: cell-based; settings: HS 578T; 10^−5 molar
HCC-2998 = type: cell-based; settings: HCC-2998; 10^−5 molar
UACC-257 = type: cell-based; settings: UACC-257; 10^−5 molar

Row | SMILES | Growth percent (HL-60(TB)) [%] | Growth percent (HOP-62) [%] | Growth percent (HOP-92) [%] | Growth percent (NCI-H460) [%] | Growth percent (COLO 205) [%] | Growth percent (HT29) [%] | Growth percent (SW-620) [%] | Growth percent (SF-539) [%] | Growth percent (SNB-19) [%] | Growth percent (SNB-75) [%] | Growth percent (M14) [%] | Growth percent (SK-MEL-2) [%] | Growth percent (IGROV1) [%] | Growth percent (OVCAR-4) [%] | Growth percent (ACHN) [%] | Growth percent (CAKI-1) [%] | Growth percent (HS 578T) [%] | melting point [°C] | Growth percent (HCC-2998) [%] | Growth percent (UACC-257) [%]
1 | O=c1c2cc(Cl)ccc2sc2c(NCc3ccc4c(c3)OCO4)nc3ccccc3c12 [Compound N27, 6-((Benzo[d][1,3]dioxol-5-ylmethyl)amino)-10-chloro-12H-thiochromeno[2,3-c]quinolin-12-one] | 112.12 | 78.01 | 45.39 | 76.71 | 87.63 | 82.91 | 76.95 | 77.12 | 97.62 | 57.14 | 94.93 | 95.57 | 67.81 | 53.73 | 58.48 | 75.09 | 70.49 | 205 to 206 |  | 
2 | O=c1c2cc(Cl)ccc2sc2c(NCCc3ccccc3)nc3ccccc3c12 [Compound N30, 10-Chloro-6-(phenethylamino)-12H-thiochromeno[2,3-c]quinolin-12-one] | 105.68 | 103.19 | 73.02 | 95.11 | 100.02 | 109.15 | 93.45 | 97.86 | 100.6 | 68.76 | 97.97 | 106.33 |  | 79.53 | 90.85 | 81.04 | 87.62 | 151 to 152 | 113.77 | 109.29
3 | COc1ccc(CCNc2nc3ccccc3c3c(=O)c4cc(Cl)ccc4sc23)cc1 [Compound N31, 10-Chloro-6-((4-methoxyphenethyl)amino)-12H-thiochromeno[2,3-c]quinolin-12-one] | 94.27 | 90.07 | 67.57 | 98.14 | 105.41 | 120.78 | 97.10 | 95.67 | 96.74 | 74.50 | 100.06 | 113.12 | 86.73 | 79.00 | 91.19 | 85.75 | 87.49 | 214 to 215 | 105.27 | 98.66
